Measured values reported in PMC11053944, “FRET Assays for the Identification of C. albicans HSP90-Sba1 and Human HSP90α-p23 Binding Inhibitors” (Pharmaceuticals, 2024).
“Also recorded” adds a separate entry of the source.

Columns and labels:
[1] = target: T1, C. albicans HSP90–Sba1 binding (Candida albicans, UniProt P46598); test: FRET inhibitor screening assay, C. albicans HSP90-Sba1 binding; conditions: 10 or 100 µM (Sba1 20 µM), triplicates, 3 mM ATP, 1% DMSO, 15 min 30 °C
T1 construct: made in house; host or cells: E. coli BL21(DE3)
Description: We used the Z′ factor (Z′) to optimize the FRET assays for screening purposes. Z′ represents a simple statistical parameter for the quality assessment and optimization of HTS assays and screening assays in general. It is a measure that determines the degree of signal separation between binding and non-binding data sets. Calculation of the Z′ factor is based on the standard deviation of the individual data sets as well as their general signal separation. Values ≥ 0.5 can be classified as excellent for screening purposes. […] When the fluorescent fusion proteins of HSP90 and co-chaperones bind to each other, FRET occurs between donor and acceptor fluorophores, and the sensitized emission (EmFRET) signal increases. Consequently, the fluorescence intensity of the donor decreases (FLDD). […] To obtain an informative Z′ value, we calculated it based on at least three independent experiments amounting to 144 samples for both binding and non-binding control data sets (Figure 4B,E). […] We defined the ‘hit threshold’ as a decrease in readout signal of more than 3 standard deviations (SDs) from the mean signal of the binding control. This constitutes a common threshold for hit identification in HTS campaigns.
(§1) FRET experiments were carried out in 384-well microtiter plates (Art. No. 3766 Corning, NY, USA, or Art. No. 781906, Greiner Bio-One GmbH, Frickenhausen, Germany) containing a final volume of 20 µL and measured with a microplate reader Infinite M200Pro (Tecan, Männedorf, Switzerland). The fluorescence was measured in three channels: excitation (ex.): 488 nm/emission (em.): 525 nm (mNeonGreen fluorescence), ex.: 561 nm/em.: 610 nm (mScarlet-I fluorescence) and the FRET channel ex.: 488 nm/em.: 610 nm. The excitation and emission bandwidths were set to 9 and 20 nm, respectively. Experiments for the determination of the equilibrium dissociation constants were performed with a filter-based microplate reader Infinite F200Pro (Tecan, Männedorf, Switzerland). The fluorescence was measured in three channels using the following filters: ex.: 485 ± 20 nm/em.: 535 ± 20 nm (mNeonGreen channel), ex.: 535 ± 20 nm/em.: 612 ± 10 nm (mScarlet-I channel) and the FRET channel ex.: 485 ± 20 nm/em.: 612 ± 10 nm. FRET emission (EmFRET) was calculated according to Song et al. 2011 [81]:(1) EmFRET=FLDA−x×FLDD−(y×FLAA) where FLDA is the fluorescence signal of the FRET channel and FLDD and FLAA are fluorescence signals from the mNeonGreen and mScarlet-I channels, respectively. The correction factors x and y were calculated as follows:(2) x=FLDA/FLDD for samples containing only the donor fluorophore or fluorescent fusion proteins with mNeonGreen and (3) y=FLDA/FLAA for samples containing only the acceptor fluorophore or fluorescent fusion proteins with mScarlet-I in the same concentration as samples containing both the donor and acceptor.
For screening for the identification of ATP-competitive C. albicans HSP90 and HSP90-Sba1 binding inhibitors, 10 µL of HSP90-mNeonGreen ([…]) in HEPES buffer (40 mM HEPES/KOH pH 7.5, 20 mM KCl) was mixed with 10 µL of 200 µM compound solution in 2x reaction buffer (40 mM HEPES/KOH pH 7.5, 20 mM KCl, 10 mM MgCl2, 40 mM Na2MoO4, Triton-X 100 0.2%), 6 mM ATP, 2% DMSO, resulting […] Samples for binding control (3 mM ATP, final concentration) and non-binding control (no ATP) were prepared in the same manner without compounds. The samples were incubated for 15 min at 30 °C prior to measurement.

[2] = target: T2, human HSP90α–p23 binding (Homo sapiens, UniProt P07900); test: FRET inhibitor screening assay, human HSP90α-p23 binding; conditions: 10 or 100 µM, triplicates, 3 mM ATP, 1% DMSO, 15 min 37 °C
T2 construct: made in house; host or cells: E. coli Rosetta2(DE3) pLysS
Description: We used the Z′ factor (Z′) to optimize the FRET assays for screening purposes. Z′ represents a simple statistical parameter for the quality assessment and optimization of HTS assays and screening assays in general. It is a measure that determines the degree of signal separation between binding and non-binding data sets. Calculation of the Z′ factor is based on the standard deviation of the individual data sets as well as their general signal separation. Values ≥ 0.5 can be classified as excellent for screening purposes. […] When the fluorescent fusion proteins of HSP90 and co-chaperones bind to each other, FRET occurs between donor and acceptor fluorophores, and the sensitized emission (EmFRET) signal increases. Consequently, the fluorescence intensity of the donor decreases (FLDD). […] We defined the ‘hit threshold’ as a decrease in readout signal of more than 3 standard deviations (SDs) from the mean signal of the binding control. This constitutes a common threshold for hit identification in HTS campaigns.
The excitation and emission bandwidths were set to 9 and 20 nm, respectively. Experiments for the determination of the equilibrium dissociation constants were performed with a filter-based microplate reader Infinite F200Pro (Tecan, Männedorf, Switzerland). […] The correction factors x and y were calculated as follows:(2) x=FLDA/FLDD for samples containing only the donor fluorophore or fluorescent fusion proteins with mNeonGreen and (3) y=FLDA/FLAA for samples containing only the acceptor fluorophore or fluorescent fusion proteins with mScarlet-I in the same concentration as samples containing both the donor and acceptor.
For screening for the identification of ATP-competitive C. albicans HSP90 and HSP90-Sba1 binding inhibitors, 10 µL of HSP90-mNeonGreen (2 µM) and Sba1-mScarlet-I (4 µM) in HEPES buffer (40 mM HEPES/KOH pH 7.5, 20 mM KCl) was mixed with 10 µL of 200 µM compound solution in 2x reaction buffer (40 mM HEPES/KOH pH 7.5, 20 mM KCl, 10 mM MgCl2, 40 mM Na2MoO4, Triton-X 100 0.2%), 6 mM ATP, 2% DMSO, resulting ultimately in constant HSP90-mNeonGreen concentrations of 1 µM and Sba1-mScarlet-I 2 µM in reaction buffer. Samples for binding control (3 mM ATP, final concentration) and non-binding control (no ATP) were prepared in the same manner without compounds. The samples were incubated for 15 min at 30 °C prior to measurement. The assay for the human HSP90α–p23 binding inhibitor identification was performed analogously, with the exception that samples were incubated for 15 min at 37 °C prior to measurement. Since binding samples show both a high EmFRET as well as a reduction in donor emission (FLDD), we calculated the quotient (EmFRET/FLDD) to derive an improved signal separation and robustness. The nucleoside-mimetics library was obtained from Enamine (catalog No. NML-320-X-20, Enamine Ltd., Kyiv, Ukraine). Z′ and Z factors were calculated based on Zhang et al..

[3] = target: HSP90; conditions: cited from earlier work
[4] = tested on: HSP90 - Sba1/p23 binding; conditions: according to literature; cited from earlier work
[5] = target: T3, C. albicans HSP90-mNeonGreen–Sba1-mScarlet-I binding (Candida albicans, UniProt P46598, E36A)
T3 construct: made in house; host or cells: E. coli BL21(DE3)
Procedure: (§2) In this investigation, 1 µM HSP90-mNeonGreen was incubated with 2 µM Sba1-mScarlet-I in reaction buffer containing 5 mM ATP either alone (UC) or with the addition of 20 µM Sba1. As a negative control, samples containing 20 µM bovine serum albumin (BSA) were used.
as §1
All experiments were carried out in reaction buffer (40 mM HEPES/KOH pH 7.5, 20 mM KCl, 5 mM MgCl2, 20 mM Na2MoO4, Triton-X 100 0.1%). HEPES and KCl were purchased from AppliChem, Darmstadt, Germany. […]

[6] = target: T4, human HSP90α-mNeonGreen–p23-mScarlet-I binding (Homo sapiens, UniProt P07900, E47A); test: FRET characterization of model inhibitors and ATP on human HSP90α-p23 binding
T4 construct: made in house; host or cells: E. coli Rosetta2(DE3) pLysS
Procedure: as §2, §1
All experiments were carried out in reaction buffer (40 mM HEPES/KOH pH 7.5, 20 mM KCl, 5 mM MgCl2, 20 mM Na2MoO4, Triton-X 100 0.1%). HEPES and KCl were purchased from AppliChem, Darmstadt, Germany. KOH and MgCl2 were obtained from VWR Chemicals, Darmstadt, Germany. Na2MoO4 was from Merck, Darmstadt, Germany. Triton-X 100 was purchased from Serva, Heidelberg, Germany.
For C. albicans Sba1 competition experiments for HSP90-mNeonGreen–Sba1-mScarlet-I binding, 1 µM HSP90-mNeonGreen and 1 µM Sba1-mScarlet-I were incubated with varying concentrations of Sba1 in a range of 0–25,000 nM (lowest non-zero concentration 12 nM) in reaction buffer containing 5 mM ATP. The experiment was performed twice in nonaplicates. For human p23 competition experiments for HSP90α-mNeonGreen–p23-mScarlet-I binding, 1 µM HSP90α-mNeonGreen and 1 µM p23-mScarlet-I were incubated with varying concentrations of p23 in a range of 0–50 000 nM (lowest non-zero concentration 23 nM) in reaction buffer containing 5 mM ATP. The experiment was performed twice in hexaplicates. […] The experiment was performed thrice in triplicates. […] The IC50,rel values were calculated using the equation log (inhibitor) vs. response-variable slope (four parameters) in GraphPad Prism 5. Ki values for inhibition of HSP90-mNeonGreen–Sba1-mScarlet-I/p23-mScarlet-I binding by non-labeled Sba1/p23 were calculated with One Site—Fit Ki in GraphPad Prism 5. […] The EC50,rel values were calculated using the log (agonist) vs. response-variable slope (four parameters) equation in GraphPad Prism 5.

[7] = target: T5, C. albicans HSP90-mNeonGreen (Candida albicans, UniProt P46598); test: Microscale thermophoresis, AMP-PNP binding; conditions: 50 nM HSP90-mNeonGreen, 25 °C, error of the fit; read-out: Kd, binding to C. albicans HSP90-mNeonGreen (MST)
T5 construct: made in house; host or cells: E. coli BL21(DE3)
Procedure: HSP90-mNeonGreen (C. albicans) or mNeonGreen serving as the negative control was adjusted to 100 nM with Sba1 buffer (40 mM HEPES/KOH pH 7.5, 20 mM KCl). The ligand AMP-PNP was dissolved in 2x reaction buffer (40 mM HEPES/KOH pH 7.5, 20 mM KCl, 10 mM MgCl2, 40 mM Na2MoO4, 0.2% Triton-X 100), and a series of 16 1:1 dilutions was prepared using the same buffer, producing ligand concentrations ranging from […] to […]. For the measurement, each ligand dilution was mixed with one volume of HSP90-mNeonGreen or mNeonGreen, which led to a final concentration of 50 nM and final ligand concentrations ranging from 153 nM to […]. After 5 min incubation at room temperature, the samples were loaded into Monolith NT.115 Capillaries (NanoTemper Technologies, Munich, Germany). MST was measured using a Monolith NT.115 at an ambient temperature of 25 °C. Instrument parameters were adjusted to 35% LED power and a high MST power of 80%. Data of three independently pipetted measurements were analyzed (MO.Affinity Analysis software version 2.1.3, NanoTemper Technologies, Munich, Germany) using the signal from an MST-on time of 30 s.

[8] = target: human HSP90β; parameters: method as in earlier work; conditions: 25 °C; ref 37 (McLaughlin et al.); read-out: Kd, binding to human HSP90β; cited from earlier work
[9] = target: human HSP90β–p23 complex; parameters: method as in PMID 16403413; conditions: read-out: Kd, binding to human HSP90β–p23 complex; cited from earlier work

T1 sequence (P46598 whole entry): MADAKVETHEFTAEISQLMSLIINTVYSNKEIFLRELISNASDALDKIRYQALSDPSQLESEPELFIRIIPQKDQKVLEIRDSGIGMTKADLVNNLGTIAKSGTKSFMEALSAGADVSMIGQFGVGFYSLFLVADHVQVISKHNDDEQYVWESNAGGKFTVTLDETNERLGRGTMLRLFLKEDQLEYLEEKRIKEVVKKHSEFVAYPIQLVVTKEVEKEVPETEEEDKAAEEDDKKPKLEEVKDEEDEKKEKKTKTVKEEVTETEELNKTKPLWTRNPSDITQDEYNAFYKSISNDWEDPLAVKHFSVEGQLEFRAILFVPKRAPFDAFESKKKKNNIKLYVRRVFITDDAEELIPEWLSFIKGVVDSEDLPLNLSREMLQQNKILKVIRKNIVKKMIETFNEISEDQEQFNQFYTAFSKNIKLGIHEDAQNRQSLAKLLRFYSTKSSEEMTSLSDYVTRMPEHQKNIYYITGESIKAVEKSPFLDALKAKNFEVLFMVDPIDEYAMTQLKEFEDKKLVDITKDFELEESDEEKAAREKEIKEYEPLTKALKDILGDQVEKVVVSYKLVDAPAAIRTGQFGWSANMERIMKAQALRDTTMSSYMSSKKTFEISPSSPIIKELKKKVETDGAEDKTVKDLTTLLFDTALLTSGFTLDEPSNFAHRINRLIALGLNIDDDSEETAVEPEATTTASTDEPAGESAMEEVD
T3 sequence (P46598 whole entry, stated change not applied): as the sequence (P46598 whole entry) above
T5 sequence (P46598 whole entry): as the sequence (P46598 whole entry) above

SMILES: CC1(C)CC(=O)c2c(C(F)(F)F)nn(-c3ccc(C(N)=O)c(N[C@H]4CC[C@H](OC(=O)CN)CC4)c3)c2C1 [SNX-5422]
- hit identification (EmFRET/FLDD decrease of more than 3 SDs from binding control mean) [1]: reliably identified as disrupting HSP90-Sba1 binding; also recorded: reliably identified as hits
- hit identification (EmFRET/FLDD decrease of more than 3 SDs from binding control mean) [2]: reliably identified as hits
- Kd ([3]; Table S1, according to literature): 0.016 µM
- Influence on p23/Sba1 binding [4]: Yes

SMILES: COc1c(C)cnc(Cn2cnc3c(Cl)nc(N)nc32)c1C [BIIB021]
- hit identification (EmFRET/FLDD decrease of more than 3 SDs from binding control mean) [1]: reliably identified as disrupting HSP90-Sba1 binding; also recorded: reliably identified as hits
- Influence on p23/Sba1 binding [4]: Yes

SMILES: Nc1ncnc2c1ncn2[C@@H]1O[C@H](COP(=O)(O)OP(=O)(O)OP(=O)(O)O)[C@@H](O)[C@H]1O [ATP]
- concentration at which maximum binding was reached ([5]; 1 µM HSP90E36A-mNeonGreen, 2 µM Sba1-mScarlet-I): ~ 3 mM
- EC50 ([5]; 1 µM donor, 2 µM acceptor, ATP 0–12,500 µM, read-out: EC50,rel, influence on HSP90E36A-mNeonGreen–Sba1-mScarlet-I binding): 220 ± 40 µM
- concentration at which maximum binding was reached ([6]; 1 µM HSP90αE47A-mNeonGreen, 2 µM p23-mScarlet-I): ~ 3 mM
- EC50 ([6]; 1 µM donor, 2 µM acceptor, read-out: EC50,rel, influence on HSP90αE47A-mNeonGreen–p23-mScarlet-I binding): 210 ± 30 µM

SMILES: Nc1ncnc2c1ncn2[C@@H]1O[C@H](COP(=O)(O)OP(=O)(O)NP(=O)(O)O)[C@@H](O)[C@H]1O [AMP-PNP]
- Kd [7]: 200 ± 70 µM
- Kd [8]: 148 ± 12 µM
- Kd [9]: 39 ± 12 µM
